Reference: the NIST ThermoML archive (doi:10.1016/j.tca.2004.08.013)

Assay: xn = mol fraction of the nth substance listed
Conditions: 101.3 kPa, Liquid

CCN(CC)CC [triethylamine] + C1COCCO1
303.15 K
Conditions | mass density [kg/m3] | viscosity [mPa·s]
x1 = 0.0138 | 1015.32 | 1.059
x1 = 0.0232 | 1010.65 | 1.042
x1 = 0.0349 | 1004.86 | 1.018
x1 = 0.0453 | 999.87 | 0.998
x1 = 0.0551 | 995.17 | 0.98
x1 = 0.0691 | 988.57 | 0.955
x1 = 0.0803 | 983.41 | 0.932
x1 = 0.0909 | 978.57 | 0.914
x1 = 0.1006 | 974.22 | 0.899
x1 = 0.1128 | 968.78 | 0.877

CCN(CC)CC [triethylamine] + Clc1ccccc1
303.15 K
Conditions | mass density [kg/m3] | viscosity [mPa·s]
x1 = 0.0118 | 1089.87 | 0.709
x1 = 0.0193 | 1086.26 | 0.702
x1 = 0.0299 | 1081.32 | 0.694
x1 = 0.0415 | 1075.87 | 0.685
x1 = 0.0493 | 1072.21 | 0.677
x1 = 0.0595 | 1067.48 | 0.672
x1 = 0.071 | 1062.15 | 0.664
x1 = 0.0792 | 1058.37 | 0.658
x1 = 0.0893 | 1053.74 | 0.652
x1 = 0.0994 | 1049.13 | 0.645

CCCCN [1-butanamine] + ClC(Cl)Cl
Conditions | mass density, 303.15 K [kg/m3] | mass density, 313.15 K [kg/m3] | viscosity, 303.15 K [mPa·s] | viscosity, 313.15 K [mPa·s]
x1 = 0.0091 | 1462.78 | 1440.74 | 0.528 | 0.478
x1 = 0.0196 | 1453.53 | 1431.89 | 0.536 | 0.485
x1 = 0.0289 | 1445.49 | 1423.81 | 0.544 | 0.493
x1 = 0.0409 | 1435.01 | 1413.72 | 0.55 | 0.499
x1 = 0.0483 | 1428.52 | 1407.41 | 0.556 | 0.505
x1 = 0.0578 | 1420.29 | 1399.24 | 0.562 | 0.511
x1 = 0.0676 | 1411.7 | 1390.72 | 0.566 | 0.517
x1 = 0.0775 | 1403.16 | 1382.3 | 0.569 | 0.521
x1 = 0.0848 | – | – | 0.573 | 0.525

CCCN [propan-1-amine] + ClC(Cl)(Cl)Cl
Conditions | mass density, 303.15 K [kg/m3] | mass density, 313.15 K [kg/m3] | viscosity, 303.15 K [mPa·s] | viscosity, 313.15 K [mPa·s]
x1 = 0.0071 | 1569.84 | 1550.16 | 0.859 | 0.761
x1 = 0.0184 | 1561.86 | 1542.3 | 0.866 | 0.763
x1 = 0.0285 | 1554.57 | 1535.07 | 0.873 | 0.764
x1 = 0.0386 | 1547.37 | 1527.92 | 0.876 | 0.765
x1 = 0.0479 | 1540.78 | 1521.37 | 0.88 | 0.768
x1 = 0.0574 | 1533.92 | 1514.52 | 0.885 | 0.77
x1 = 0.0661 | 1527.48 | 1508.11 | 0.885 | 0.772
x1 = 0.0748 | 1521.24 | 1501.94 | 0.888 | 0.774
x1 = 0.0841 | 1514.3 | 1495.14 | 0.892 | 0.775
